Assay: mn = molality of the nth substance listed, in mol/kg
Conditions: 101 kPa, Liquid; for viscosity: Capillary tube (Ostwald / Ubbelohde) method

COC(=O)[C@H](c1ccccc1Cl)N1CCc2sccc2C1.O=S(=O)(O)O [(S)-(+)-Clopidogrel hydrogen sulfate] + CO
Conditions	mass density [kg/m3]	viscosity [mPa·s]
278.15 K, m1 = 0.001	803.1	0.7441
278.15 K, m1 = 0.003	803.5	0.747
278.15 K, m1 = 0.005	804	0.7487
278.15 K, m1 = 0.007	804.4	0.7505
278.15 K, m1 = 0.009	804.8	0.7525
278.15 K, m1 = 0.011	805.2	0.7529
278.15 K, m1 = 0.013	805.9	0.7577
278.15 K, m1 = 0.015	806.4	0.7582
283.15 K, m1 = 0.001	799.2	0.6924
283.15 K, m1 = 0.003	799.5	0.6943
283.15 K, m1 = 0.005	800.1	0.6961
283.15 K, m1 = 0.007	800.4	0.698
283.15 K, m1 = 0.009	801.1	0.6998
283.15 K, m1 = 0.011	801.5	0.7006
283.15 K, m1 = 0.013	802	0.7039
283.15 K, m1 = 0.015	802.6	0.705
288.15 K, m1 = 0.001	795.4	0.6416
288.15 K, m1 = 0.003	795.8	0.6446
288.15 K, m1 = 0.005	796.2	0.6475
288.15 K, m1 = 0.007	796.4	0.6487
288.15 K, m1 = 0.009	797.1	0.6494
288.15 K, m1 = 0.011	797.5	0.6502
288.15 K, m1 = 0.013	798.2	0.6527
288.15 K, m1 = 0.015	799	0.6538
293.15 K, m1 = 0.001	792.3	0.6006
293.15 K, m1 = 0.003	792.5	0.6022
293.15 K, m1 = 0.005	792.9	0.6042
293.15 K, m1 = 0.007	793.3	0.6049
293.15 K, m1 = 0.009	793.6	0.606
293.15 K, m1 = 0.011	794	0.6077
293.15 K, m1 = 0.013	794.5	0.6096
293.15 K, m1 = 0.015	795.3	0.6111
298.15 K, m1 = 0.001	788.1	0.5596
298.15 K, m1 = 0.003	788.2	0.562
298.15 K, m1 = 0.005	788.4	0.5631
298.15 K, m1 = 0.007	788.7	0.5638
298.15 K, m1 = 0.009	789	0.5652
298.15 K, m1 = 0.011	789.3	0.5661
298.15 K, m1 = 0.013	790	0.5684
298.15 K, m1 = 0.015	790.8	0.5694
303.15 K, m1 = 0.001	784	0.5212
303.15 K, m1 = 0.003	784.1	0.5236
303.15 K, m1 = 0.005	784.3	0.5254
303.15 K, m1 = 0.007	784.5	0.5262
303.15 K, m1 = 0.009	785	0.5269
303.15 K, m1 = 0.011	785.3	0.5276
303.15 K, m1 = 0.013	785.8	0.5304
303.15 K, m1 = 0.015	786.6	0.5315
308.15 K, m1 = 0.001	779.7	0.487
308.15 K, m1 = 0.003	779.8	0.4898
308.15 K, m1 = 0.005	780	0.4901
308.15 K, m1 = 0.007	780.3	0.4906
308.15 K, m1 = 0.009	780.7	0.4919
308.15 K, m1 = 0.011	781.1	0.4936
308.15 K, m1 = 0.013	781.5	0.4943
308.15 K, m1 = 0.015	782.3	0.4967
313.15 K, m1 = 0.001	775.3	0.4567
313.15 K, m1 = 0.003	775.5	0.4589
313.15 K, m1 = 0.005	775.7	0.4595
313.15 K, m1 = 0.007	775.9	0.4601
313.15 K, m1 = 0.009	776	0.4604
313.15 K, m1 = 0.011	776.4	0.462
313.15 K, m1 = 0.013	777	0.4631
313.15 K, m1 = 0.015	777.8	0.4647

COC(=O)[C@H](c1ccccc1Cl)N1CCc2sccc2C1.O=S(=O)(O)O [(S)-(+)-Clopidogrel hydrogen sulfate] + CCO
Conditions	mass density [kg/m3]	viscosity [mPa·s]
278.15 K, m1 = 0.001	801	1.632
278.15 K, m1 = 0.003	801.6	1.638
278.15 K, m1 = 0.005	802.3	1.645
278.15 K, m1 = 0.007	802.9	1.665
278.15 K, m1 = 0.009	803.5	1.671
278.15 K, m1 = 0.011	803.9	1.674
278.15 K, m1 = 0.013	804.5	1.68
278.15 K, m1 = 0.015	805	1.687
283.15 K, m1 = 0.001	798	1.476
283.15 K, m1 = 0.003	798.4	1.484
283.15 K, m1 = 0.005	798.9	1.489
283.15 K, m1 = 0.007	799.3	1.502
283.15 K, m1 = 0.009	799.8	1.505
283.15 K, m1 = 0.011	800.1	1.508
283.15 K, m1 = 0.013	800.6	1.514
283.15 K, m1 = 0.015	800.9	1.523
288.15 K, m1 = 0.001	794.2	1.335
288.15 K, m1 = 0.003	794.5	1.343
288.15 K, m1 = 0.005	794.9	1.346
288.15 K, m1 = 0.007	795.4	1.359
288.15 K, m1 = 0.009	795.9	1.36
288.15 K, m1 = 0.011	796.2	1.361
288.15 K, m1 = 0.013	796.5	1.365
288.15 K, m1 = 0.015	796.8	1.373
293.15 K, m1 = 0.001	790.4	1.211
293.15 K, m1 = 0.003	790.8	1.214
293.15 K, m1 = 0.005	791	1.223
293.15 K, m1 = 0.007	791.4	1.235
293.15 K, m1 = 0.009	791.8	1.236
293.15 K, m1 = 0.011	792.2	1.238
293.15 K, m1 = 0.013	792.8	1.243
293.15 K, m1 = 0.015	793	1.25
298.15 K, m1 = 0.001	786.1	1.101
298.15 K, m1 = 0.003	786.6	1.103
298.15 K, m1 = 0.005	786.9	1.109
298.15 K, m1 = 0.007	787.2	1.12
298.15 K, m1 = 0.009	787.7	1.121
298.15 K, m1 = 0.011	788	1.123
298.15 K, m1 = 0.013	788.4	1.126
298.15 K, m1 = 0.015	788.7	1.131
303.15 K, m1 = 0.001	781.2	0.9985
303.15 K, m1 = 0.003	781.8	1.003
303.15 K, m1 = 0.005	782.1	1.006
303.15 K, m1 = 0.007	782.5	1.012
303.15 K, m1 = 0.009	782.9	1.015
303.15 K, m1 = 0.011	783.2	1.017
303.15 K, m1 = 0.013	783.4	1.019
303.15 K, m1 = 0.015	783.9	1.023
308.15 K, m1 = 0.001	778.2	0.9134
308.15 K, m1 = 0.003	778.5	0.9149
308.15 K, m1 = 0.005	778.7	0.9166
308.15 K, m1 = 0.007	778.9	0.9224
308.15 K, m1 = 0.009	779.1	0.9236
308.15 K, m1 = 0.011	779.4	0.9256
308.15 K, m1 = 0.013	779.8	0.928
308.15 K, m1 = 0.015	780.2	0.9307
313.15 K, m1 = 0.001	773.7	0.8328
313.15 K, m1 = 0.003	773.9	0.8348
313.15 K, m1 = 0.005	774.2	0.8359
313.15 K, m1 = 0.007	774.5	0.8409
313.15 K, m1 = 0.009	774.8	0.8441
313.15 K, m1 = 0.011	775.2	0.8458
313.15 K, m1 = 0.013	775.7	0.8473
313.15 K, m1 = 0.015	776	0.8496

From the NIST ThermoML archive (doi:10.1021/je1000796)
